Assay [1] has as its system Microphthalmia-associated transcription factor (MITF). As to the kind of experiment: MITF and phosphorylated MITF in B16 cells (Western). It is filed as cell-based, mouse. The conditions noted are these: 2 h; for (Phosphorylated MITF)/(MITF): control 0.90; for Phosphorylated MITF / MITF: β-actin regarded as 100%; for Phosphorylated MITF: control 73; for MITF: control 81. How it is done:
Test solutions were prepared by dissolving ascorbic acid 2-glucoside (a reagent grade specimen commercialized by Hayashibara Co., Ltd., Okayama, Japan) or L-ascorbic acid (a special reagent grade specimen commercialized by Wako Pure Chemical Industries, Ltd., Tokyo, Japan) in Dulbecco's MEM medium supplemented with 10% v/v fetal calf serum and an antibiotic (abbreviated as “D-MEM medium”, hereinafter) to give a final concentration of 2.0 or 8.0 mM.
Continuously-cultivated B16 cells in D-MEM medium were collected, resuspended in D-MEM medium, inoculated to 6-well plates in an amount of 1×10^5 cells/2 mL/well, and cultured for 24 hours. Thereafter, the culture supernatants were removed by sucking, and any of the test solutions was added to each plate in a volume of 2 mL/well, followed by culturing the cells for two hours. As a control, cells in other plates were added with only D-MEM medium in a volume of 2 mL/plate and cultured for two hours. To each plate, which had been removed its culture supernatant, an ice-chilled Dulbecco's PBS (−), commercialized by Nissui Pharmaceutical Co., Ltd., Tokyo, Japan, was added to wash cells, and the resulting cells were added with a SDS-sample buffer containing 62.5 mM Tris-HCl (pH 6.8), 2% w/v SDS, 10% w/v glycerol, 50 mM dithiothreitol (DTT), and 0.01% w/v bromophenol blue in a volume of 0.1 mL/well, and collected with a scraper. The resulting cell suspension was treated with an ultrasonicator, commercialized by Osminics Inc., Minnesota, USA, and subjected to SDS-polyacrylamide gel electrophoresis. The proteins in the gel were electrically transferred to a nitrocellulose membrane and allowed to sequentially react with a first antibody (Anti-phospho-MITF […] or Anti MITF), a secondary antibody, and LumiGLO™ in this order, followed by allowing to expose an X-ray film for detecting MITF positive bands. The bands thus detected were subjected to band strength analysis using Scion Image to determine the quantity of MITF and phosphorylated MITF. For every B16 cell culture, a 5% v/v CO2 incubator was used. Relative amounts of MITF and phosphorylated MITF and the ratio of phosphorylated MITF against MITF were determined when the level of β-actin in B16 cells upon culturing with each of the test solutions was regarded as 100%.

The next assay relates to glutathione. As to the kind of experiment: Production level of glutathione in NHEK cells. It is filed as cell-based, human. The conditions noted are these: 24 h, control = 100%. The procedure: Continuously-cultivated NHEK cells in EpiLife medium were collected, resuspended in EpiLife medium, inoculated to culture plates with 10 cm in diameter in an amount of 1×10^6 cells/10 mL/plate, and cultured for 24 hours. Thereafter, each culture supernatant was removed by sucking, and any of the test solutions was added to the remaining cells in a volume of 10 mL/plate, followed by culturing the cells for another 24 hours. As a control, cells were added with only D-MEM medium in an amount of 10 mL/plate and cultured for 24 hours. Each culture supernatant was removed from each plate, then ice-chilled Dulbecco's PBS (−), commercialized by Nissui Pharmaceutical Co., Ltd., Tokyo, Japan, was added to rinse the remaining cells, which were then collected with a scraper. Glutathione was quantified on “Glutathione Assay Kit”, a product name of glutathione assay kit commercialzied by BioVision, Inc., San Francisco, USA. In this experiment, the control and test solutions in respective three plates were assayed for glutathione production level for each plate and averaged for obtaining the glutathione production level of each solution. A 5% v/v CO2 incubator was used for culturing NHEK cells in any case. Relative values of test samples were determined with the proviso that the production levels of reduced glutathione and total glutathione in NHEK cells that had been cultured with only EpiLife medium were respectively regarded as 100%, and the results are in Table 5.

For a further assay, the system named is cornified envelope (CE). As to the kind of experiment: Production of cornified envelope (CE) in NHEK cells. The following applies: 5 days, control 0.63 ± 0.07. It is filed as cell-based, human. How it is done:
The following experiment was conducted to examine the effect of ascorbic acid 2-glucoside on the production of CE in a keratinous layer. As a model for typical normal human epidermal cells, normal human epidermal keratinocytes from neonatal foreskin, commercialized by Kurabo Industries Ltd., Osaka, Japan, and abbreviated as “NHEK cells”, hereinafter, were suspended in EpiLife medium (pH 7.4), commercialized by Invitrogen Corporation, Calif., USA, and called “EpiLife medium”, hereinafter, inoculated to 12-well microplates at a cell density of 1×10^5 cells/well, and cultured under the conditions of 37° C. and 5% v/v CO2 overnight. Thereafter, “AA2G”, a product name of a particulate composition containing anhydrous crystalline ascorbic acid 2-glucoside, commercialized by Hayashibara Co., Ltd., Okayama, Japan, was added to each well to give a final concentration of 0.5 or 1 mM, or, as a positive control, CaCl2 was added to each well to give a final concentration of 1 mM; and the cells in each well were cultured at 37° C. for five days while replacing the medium in each well with a fresh preparation of EpiLife medium having the above-identified concentration of ascorbic acid 2-glucoside or CaCl2. Assay for intracellular CE content was carried out in accordance with Tatsuya Hasegawa et al., “Lipids”, Vol. 46, pp. 529 to 535, 2011. After completion of the culture, the culture supernatant in each well was immediately removed, followed by detaching and extracting the cells adhered to the wall of each well by means of pipetting with phosphate buffered saline (PBS, pH 7.4) containing 2% w/v sodium dodecyl sulfate (SDS), and collecting insoluble fractions by centrifugation at 15,000 rpm for 10 min. […] The measured values were regarded as CE production levels. […]

Take `O=C1O[C@H]([C@@H](O)CO)C(O)=C1O[C@H]1O[C@H](CO)[C@@H](O)[C@H](O)[C@H]1O` [ascorbic acid 2-glucoside, 2-O-α-D-glucosyl-L-ascorbic acid]: the “(Phosphorylated MITF)/(MITF)” value in assay [1] (2.0 mM) is given as 0.60; in assay [1] (8.0 mM) it was 0.36. Moreover, the entries for the “Phosphorylated MITF” value in assay [1] (2.0 mM) and in assay [1] (8.0 mM) were 59% and 36%, respectively. Besides, the MITF in assay [1] (2.0 mM) was 99%; in assay [1] (8.0 mM), 101%. Also, the Reduced glutathione amounted to 106% with glutathione (0.5 mM), 111% with glutathione (1.0 mM) and 117% in the assay on glutathione (2.0 mM). Also, the Total glutathione with glutathione (0.5 mM) turned out to be 106%; in the assay with glutathione (1.0 mM) it was 111%; with glutathione (2.0 mM), 117%. Besides, the results for the “OD310nm Value (CE Production level)” value with cornified envelope (CE) (0.5 mM) and in the assay on cornified envelope (CE) (1 mM) were 0.78 ± 0.05 and 1.04 ± 0.11, respectively.

Source of the values: patent publication US10111822B2, “External dermal composition for anti-ageing and method for producing the same” (Hayashibara Co., Ltd., priority 2012, dated 2018).
